Data as given in publication PMC5365251, “Biophysical assay for tethered signaling reactions reveals tether-controlled activity for the phosphatase SHP-1” (Science Advances, 2017).

System: PEG28-ITIM
Assay: SPR of SHP-1 injected over immobilised PEG28-ITIM: binding constants (MPDPDE fit)
Set-up: species or system mouse
Conditions: tethered SPR assay with active PTP domain
Procedure: A construct expressing murine SHP-1 with an N-terminal 6× His tag was provided by M. H. Brown. Mutation of the SH2 domains was performed using a quick-change strategy. The mutations introduced were R30K and R33E for the N-terminal SH2 domain mutant and R136K for the C-terminal SH2 domain mutant previously shown to result in loss of binding ([6]). All peptides were ordered from PeptideSynthetics and were certified to be >95% pure. Peptides sequences were derived from the membrane-proximal ITIM sequence of mouse LAIR-1 receptor.
Experiments were performed on a Biacore 3000 instrument (GE Healthcare Life Sciences). All experiments were performed at 10°C and with a buffer flow rate of 10 μl/min. The buffer used was Hepes-buffered saline (HBS-EP; GE Healthcare Life Sciences), which contained 10 mM Hepes (pH 7.4), 150 mM NaCl, 3 mM EDTA, and 0.005% Surfactant P20.
A CM5 sensorchip was coupled with streptavidin to near saturation (typically between 4000 and 7000 RU) using the amine coupling kit (GE Healthcare Life Sciences) as described previously ([42]). After streptavidin was coupled, biotinylated peptides were injected to give the indicated concentrations in experimental flow cells, and excess biotin-binding sites were blocked with biotin in HBS-EP. The molar ratio of peptide to streptavidin was kept below 1:1 to ensure that peptide immobilization was random and not clustered on the tetravalent streptavidin molecules. Reference flow cells were treated with buffer and then blocked with biotin; pilot experiments using unphosphorylated control peptides in reference flow cells were indistinguishable from buffer-treated reference flow cells when injected with SHP-1. The chip surface was then conditioned with 5 × 5-min injections of HBS-EP. SHP-1 protein in HBS-EP with 1 mM dithiothreitol was then injected over reference and experimental flow cells in series for 5 min at the indicated concentrations. All SPR data were converted from the reference-subtracted data (in resonance units) to fraction bound by dividing the resonance units by the theoretical maximum resonance units expected if the experimental flow cell was saturated with bound SHP-1.
To determine the concentration of peptide in the assays, we first needed a conversion factor between the resonance units and the mass of peptide at the chip surface. We determined this conversion factor by injecting four concentrations of SHP-1 over a control flow cell on a CM5 chip and plotting the mass of SHP-1 injected against the raw resonance unit change. We repeated this on seven flow cells across four sensor chips to get an average slope of 149 ± 15 RU per g/liter (±SEM). […]

SHP-1: murine SHP-1 tyrosine phosphatase with an N-terminal 6× His tag, expressed in E. coli
bivalent reactions (in words): no evidence for bivalent reactions
